Measured values as given in patent publication US9920339B2, “Methods, reagents and cells for biosynthesizing compounds” (INVISTA North America S.á r.l., priority 2014, dated 2018).

Assays:
Assay type in all cases: biochemical
[1] = system: Mycobacterium smegmatis carboxylate reductase (SEQ ID NO: 3), enhanced by the gene product of sfp; assay: carboxylate reductase enzyme activity assay, NADPH consumption at 340 nm; conditions: SEQ ID NO 3 with sfp; 2 mM substrate, 10 mM MgCl2, 1 mM ATP, 1 mM NADPH, pH 7.5, room temperature, 20 min; absorbance at 340 nm
Description: (§1) A nucleotide sequence encoding a His-tag was added to the genes from Mycobacterium marinum, Mycobacterium smegmatis, Segniliparus rugosus, Mycobacterium massiliense, and Segniliparus rotundus that encode the carboxylate reductases of SEQ ID NOs: 2-4, 6 and 7, respectively (GenBank Accession Nos. ACC40567.1, ABK71854.1, EFV11917.1, EIV11143.1, and ADG98140.1, respectively) (see FIG. 10) such that N-terminal HIS tagged carboxylate reductases could be produced. Each of the modified genes was cloned into a pET Duet expression vector alongside a sfp gene encoding a His-tagged phosphopantetheine transferase from Bacillus subtilis, both under control of the T7 promoter. Each expression vector was transformed into a BL21[DE3] E. coli host along with the expression vectors from Example 3. Each resulting recombinant E. coli strain was cultivated at 37° C. in a 250 mL shake flask culture containing 50 mL LB media and antibiotic selection pressure, with shaking at 230 rpm. Each culture was induced overnight at 37° C. using an auto-induction media.
(§2) The pellet from each induced shake flask culture was harvested via centrifugation. Each pellet was resuspended and lysed via sonication. The cell debris was separated from the supernatant via centrifugation. The carboxylate reductases and phosphopantetheine transferase were purified from the supernatant using Ni-affinity chromatography, diluted 10-fold into 50 mM HEPES buffer (pH=7.5) and concentrated via ultrafiltration.
(§3) Enzyme activity (i.e., 5-hydroxypentanoate to 5-hydroxypentanal) assays were performed in triplicate in a buffer composed of a final concentration of 50 mM HEPES buffer (pH=7.5), 2 mM 5-hydroxypentanal, 10 mM MgCl2, 1 mM ATP, and 1 mM NADPH. Each enzyme activity assay reaction was initiated by adding purified carboxylate reductase and phosphopantetheine transferase or the empty vector control to the assay buffer containing the 5-hydroxypentanoate and then incubated at room temperature for 20 min. The consumption of NADPH was monitored by absorbance at 340 nm.
(§4) The N-terminal His-tagged carboxylate reductase of SEQ ID NO 2-4 and 7 (see Example 2 and FIG. 10) was assayed using glutarate methyl ester as substrate. The enzyme activity assay was performed in triplicate in a buffer composed of a final concentration of 50 mM HEPES buffer (pH=7.5), 2 mM glutarate methyl ester, 10 mM MgCl2, 1 mM ATP and 1 mM NADPH. The enzyme activity assay reaction was initiated by adding purified carboxylate reductase and phosphopantetheine transferase or the empty vector control to the assay buffer containing the glutarate semialdehyde and then incubated at room temperature for 20 min. The consumption of NADPH was monitored by absorbance at 340 nm.

[2] = system: Segniliparus rugosus carboxylate reductase (SEQ ID NO: 4), enhanced by the gene product of sfp; assay: as above; conditions: SEQ ID NO 4 with sfp; 2 mM substrate, 10 mM MgCl2, 1 mM ATP, 1 mM NADPH, pH 7.5, room temperature, 20 min; absorbance at 340 nm
Description: as §1, §2, §3, §4

[3] = biological target: T1, Mycobacterium marinum carboxylate reductase (SEQ ID NO: 2), enhanced by the gene product of sfp (Mycobacterium marinum, UniProt B2HN69); assay: as above; conditions: SEQ ID NO 2 with sfp; 2 mM substrate, 10 mM MgCl2, 1 mM ATP, 1 mM NADPH, pH 7.5, room temperature, 20 min; absorbance at 340 nm
T1 construct: His-tag (N); made in house; host or cells: E. coli BL21[DE3], pET Duet
Description: as §1, §2, §3, §4

[4] = system: Mycobacterium massiliense carboxylate reductase (SEQ ID NO: 6), enhanced by the gene product of sfp; assay: as above; conditions: SEQ ID NO 6 with sfp; 2 mM substrate, 10 mM MgCl2, 1 mM ATP, 1 mM NADPH, pH 7.5, room temperature, 20 min; absorbance at 340 nm
Description: as §1, with “media. […]” for “media.”
(§5) Enzyme activity (i.e., 5-hydroxypentanoate to 5-hydroxypentanal) assays were performed in triplicate in a buffer composed of a final concentration of 50 mM HEPES buffer (pH=7.5), 2 mM 5-hydroxypentanal, 10 mM MgCl2, 1 mM ATP, and 1 mM NADPH. […] The consumption of NADPH was monitored by absorbance at 340 nm.

[5] = system: Segniliparus rotundus carboxylate reductase (SEQ ID NO: 7), enhanced by the gene product of sfp; assay: as above; conditions: SEQ ID NO 7 with sfp; 2 mM substrate, 10 mM MgCl2, 1 mM ATP, 1 mM NADPH, pH 7.5, room temperature, 20 min; absorbance at 340 nm
Description: as §1
The pellet from each induced shake flask culture was harvested via centrifugation. Each pellet was resuspended and lysed via sonication. The cell debris was separated from the supernatant via centrifugation. […]
as §5
The N-terminal His-tagged carboxylate reductase of SEQ ID NO 7 (see Example 2 and FIG. 10) was assayed using glutarate semialdehyde as substrate. […] The consumption of NADPH was monitored by absorbance at 340 nm.
The N-terminal His-tagged carboxylate reductase of SEQ ID NO 2-4 and 7 (see Example 2 and FIG. 10) was assayed using glutarate methyl ester as substrate. […] The consumption of NADPH was monitored by absorbance at 340 nm.

[6] = biological target: T2, Escherichia coli pimeloyl-[acp] methyl ester methylesterase (SEQ ID NO: 1) (Escherichia coli, UniProt P13001); assay: pimeloyl-[acp] methyl ester methylesterase enzyme activity assay, glutaryl-CoA formation by LC-MS; conditions: SEQ ID NO 1, 10 μM enzyme; 5 mM glutaryl-CoA methyl ester, 25 mM Tris.HCl pH 7.0, 30° C., 1 h
T2 construct: His-tag (C); made in house; host or cells: E. coli BL21[DE3], pET28b+
Description: A sequence encoding an C-terminal His-tag was added to the gene from Escherichia coli encoding the pimeloyl-[acp] methyl ester methylesterase of SEQ ID NO: 1 (see FIG. 10) such that C-terminal HIS tagged pimeloyl-[acp] methyl ester methylesterase could be produced. The resulting modified gene was cloned into a pET28b+ expression vector under control of the T7 promoter and the expression vector was transformed into a BL21[DE3] E. coli host. The resulting recombinant E. coli strain was cultivated at 37° C. in a 500 mL shake flask culture containing 100 mL LB media and antibiotic selection pressure, with shaking at 230 rpm. Each culture was induced overnight at 18° C. using 0.3 mM IPTG.
The pellet from each induced shake flask culture was harvested via centrifugation. Each pellet was resuspended and lysed via sonication. The cell debris was separated from the supernatant via centrifugation. The pimeloyl-[acp] methyl ester methylesterase was purified from the supernatant using Ni-affinity chromatography, buffer exchanged and concentrated into 20 mM HEPES buffer (pH=7.5) via ultrafiltration and stored at 4° C.
Enzyme activity assays converting glutaryl-CoA methyl ester to glutaryl-CoA were performed in triplicate in a buffer composed of a final concentration of 25 mM Tris.HCl buffer (pH=7.0) and 5 [mM] glutaryl-CoA methyl ester. […] The formation of glutaryl-CoA was quantified via LC-MS.

T2 sequence (P13001 whole entry): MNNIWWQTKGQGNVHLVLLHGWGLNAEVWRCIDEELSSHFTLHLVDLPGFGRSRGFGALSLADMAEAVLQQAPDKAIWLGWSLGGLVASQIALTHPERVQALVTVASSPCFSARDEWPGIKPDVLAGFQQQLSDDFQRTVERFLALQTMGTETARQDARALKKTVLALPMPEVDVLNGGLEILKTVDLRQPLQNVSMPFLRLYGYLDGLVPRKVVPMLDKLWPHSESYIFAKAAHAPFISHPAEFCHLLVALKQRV
T1 sequence (B2HN69 whole entry): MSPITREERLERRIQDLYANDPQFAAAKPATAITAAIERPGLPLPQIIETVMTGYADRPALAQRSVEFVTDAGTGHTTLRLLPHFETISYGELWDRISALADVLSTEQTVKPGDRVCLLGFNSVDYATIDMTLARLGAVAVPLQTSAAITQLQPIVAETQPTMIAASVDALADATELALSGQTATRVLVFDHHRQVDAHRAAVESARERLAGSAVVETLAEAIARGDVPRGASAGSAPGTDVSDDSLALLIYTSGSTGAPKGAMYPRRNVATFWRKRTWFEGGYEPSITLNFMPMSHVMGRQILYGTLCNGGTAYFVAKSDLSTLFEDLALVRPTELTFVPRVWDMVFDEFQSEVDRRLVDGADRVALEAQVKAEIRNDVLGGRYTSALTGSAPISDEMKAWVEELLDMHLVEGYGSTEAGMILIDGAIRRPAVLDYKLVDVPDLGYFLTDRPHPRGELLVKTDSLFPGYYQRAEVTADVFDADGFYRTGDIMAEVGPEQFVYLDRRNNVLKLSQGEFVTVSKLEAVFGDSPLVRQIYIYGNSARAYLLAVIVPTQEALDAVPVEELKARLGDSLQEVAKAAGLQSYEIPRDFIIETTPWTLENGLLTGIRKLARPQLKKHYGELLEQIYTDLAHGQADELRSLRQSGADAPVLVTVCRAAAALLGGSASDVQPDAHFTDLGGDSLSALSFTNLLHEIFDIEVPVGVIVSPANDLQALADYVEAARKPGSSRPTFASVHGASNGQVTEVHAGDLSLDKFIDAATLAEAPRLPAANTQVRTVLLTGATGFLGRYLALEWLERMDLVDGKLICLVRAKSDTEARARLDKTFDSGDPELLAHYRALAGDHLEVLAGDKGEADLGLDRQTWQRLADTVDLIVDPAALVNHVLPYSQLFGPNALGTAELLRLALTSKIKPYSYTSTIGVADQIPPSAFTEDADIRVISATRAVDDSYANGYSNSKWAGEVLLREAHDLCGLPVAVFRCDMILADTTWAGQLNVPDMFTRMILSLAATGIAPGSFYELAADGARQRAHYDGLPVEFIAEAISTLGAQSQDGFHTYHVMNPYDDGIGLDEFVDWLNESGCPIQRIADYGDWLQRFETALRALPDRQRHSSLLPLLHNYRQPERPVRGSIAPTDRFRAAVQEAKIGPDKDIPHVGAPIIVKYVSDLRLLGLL

O=C(O)CCCCO [5-hydroxypentanoate]
accepted: accepted as substrate as confirmed against the empty vector control [1] | accepted as substrate as confirmed against the empty vector control [2] | accepted as substrate as confirmed against the empty vector control [3] | accepted as substrate as confirmed against the empty vector control [4] | accepted as substrate as confirmed against the empty vector control [5]

COC(=O)CCCC(=O)SCCNC(=O)CCNC(=O)C(O)C(C)(C)COP(=O)(O)OP(=O)(O)OCC1OC(n2cnc3c(N)ncnc32)C(O)C1OP(=O)(O)O (stereo not drawn) [glutaryl-CoA methyl ester]
accepted: accepted as substrate, glutaryl-CoA synthesized as reaction product as confirmed via LC-MS [6]
